The experiment has as its system Plasmodium falciparum. Put plainly: GSK_TCMDC: Inhibition of Plasmodium falciparum 3D7 in whole erythrocytes, using parasite LDH activity as an index of growth. It counts as functional, organism-based. The conditions noted are these: Plasmodium falciparum, 3D7.

`O=C(CCN(Cc1ccco1)c1nc(-c2ccc(F)cc2)nc2ccccc12)NC1CC1` registered an XC50 of 1580 nM. For `c1ccc(Oc2cccc(Nc3ccnc4ccccc34)c2)cc1` the value was 1110 nM; for `Cc1cc(N[C@@H](CC(C)C)C(=O)NCCOc2ccccc2)nc(NCCc2ccc(F)cc2)n1`, 1290 nM; for `CC(C)(C)C1CCc2onc(C(=O)Nc3cc(Cl)ccc3O)c2C1` (stereo not drawn), 779 nM.

`O=C(NCc1cc2c(cc1Cl)OCO2)c1ccc(CNC2CCN(Cc3ccccc3)CC2)cc1` displayed an XC50 of 831 nM.

As for `NOCCCCOc1ccccc1`, the XC50 is 177 nM. For `CC1CC(C)CN(CC(O)CNC(=O)Nc2ccc(Br)cc2)C1` (stereo not drawn) the value was 1050 nM; for `Cc1cnc(Nc2ccccc2)nc1NCCC(=O)Nc1ccccc1`, 1160 nM. `O=c1cc(NCCCNC2CCCc3c2ccc2ccccc32)[nH]c2ccccc12` (stereo not drawn) returned an XC50 of 824 nM. On to `NC(=O)c1ccccc1OCC(=O)Nc1cccc(-c2ccc(-c3nc4cc(C(F)(F)F)ccc4[nH]3)cc2)c1`, for which the XC50 amounted to 647 nM. The value for `Cc1noc(C)c1-c1ccc2c(Nc3ccccc3N3CCOCC3)c(C(=O)NCc3ccccc3)cnc2c1` was 1180 nM; that for `CC(=O)Nc1cccc(C(=O)Nc2cccc(-c3cccc(-c4nc5cc(F)ccc5[nH]4)c3)c2)c1` was 549 nM.

Compound `CC(C)N1CCN(C(CN2CCN(CCCOc3cccc(F)c3)CC2)c2ccc(F)cc2)CC1` (stereo not drawn) displayed an XC50 of 912 nM. For `CCNc1cc(C(=O)N[C@@H](Cc2ccccc2Cl)[C@H](O)CNC2CCCCC2)cc(N2CCCCS2(=O)=O)c1` the value was 803 nM; for `Cc1c(C)n(C2CCCCC2)c2ncnc(OC3CCN(CC(=O)NC4CC4)CC3)c12`, 1240 nM; for `COCCNCc1cccc(-c2ccc3c(Nc4ccc(F)cc4Cl)ccnc3c2)c1`, 680 nM. The value for `COc1ccc(Nc2nccc(N3CCC(NC(=O)c4cccc(C#N)c4)C3)n2)cc1` (stereo not drawn) was 819 nM; that for `CCc1ccc(CN2CCC(CNC(=O)c3cc(-c4ccccc4Cl)cs3)C2)cc1` (stereo not drawn) was 1430 nM. For `CCCCCCN1CCN(Cc2cccc(NC(=O)c3cccc(OCC)c3)c2)CC1` the value was 1110 nM; for `CC(C)N1CCC(NC(=O)N2CCCN(c3ncnc4cc(-c5ccc(Cl)cc5)sc34)CC2)CC1`, 1940 nM. For the compound `Cc1cc(NC(=O)NC(=N)N)ccc1Cl`, the XC50 came out at 698 nM. The value for `O=C(Nc1ccc(-c2nc3ccccc3[nH]2)cc1)C1CCN(Cc2cccc(F)c2F)CC1` was 1100 nM; that for `COc1ccc(C(C(=O)NC2CCN(C[C@H](O)c3ccnc4ccc(OC)cc34)CC2)N2CCN(c3ccc([N+](=O)[O-])cc3)CC2)cc1` (stereo partly drawn) was 232 nM.

`OC1CCCN(Cc2ccc(-c3cccc(-c4nc5cc(F)ccc5[nH]4)c3)cc2)C1` (stereo not drawn) had an XC50 of 868 nM.

As for `CC(C)(C)SCC(O)Cn1c2ccc(Br)cc2c2cc(Br)ccc21` (stereo not drawn), the XC50 was 1000 nM. For `c1ccc2ncc(CNCCCCCCCCNCc3cnc4ccccc4c3)cc2c1` the value was 846 nM; for `Cc1cc(N2CCN(CC3CCCCC3)CC2)nc(Nc2ccc(Br)cc2)n1`, 1090 nM; for `Cc1ccc(N(CCC(=N)N)Cc2ccccc2)cc1`, 657 nM. In turn, `COc1cccc(C(NC(=O)c2ccccc2)c2ccc3cccnc3c2O)c1` (stereo not drawn) came in with an XC50 of 1080 nM. For `CCc1cn2c3c(cc(C(=O)N[C@@H](Cc4cc(F)cc(F)c4)[C@H](O)CNC4CCCCC4)cc13)N(C)S(=O)(=O)CC2` the value was 34.5 nM. The value for `CCCc1nc2c(N3CCCN(C(=O)NC4CCCCC4)CC3)cccc2n1Cc1ccccn1` was 1160 nM; that for `CC1(C)CCCN(c2ncc(-c3cccc(CNCc4ccccc4O)c3)cn2)C1` was 886 nM; that for `Cc1ccc(NC(=O)C2CCC2)cc1-c1ccc(C(=O)NCC2CC2)cc1` was 742 nM. `COc1cc(Nc2ccnc3cc(-c4ccncc4)ccc23)cc(OC)c1OC` had an XC50 of 1080 nM. The value for `Cc1cc(C(F)(F)F)nn1-c1ccc(NC(=O)c2ccco2)cc1` was 734 nM. In the case of `CC(C)C[C@@H](NC(=O)OC(C)(C)C)C(=O)Nc1ccc(Cc2ccc(NC(=O)[C@@H](CC(C)C)NC(=O)OC(C)(C)C)cc2)cc1`, the XC50 was 207 nM. The value for `O=C(Nc1ccc2c(c1)CCN(C1CCC1)CC2)c1ccc(-n2ccnc2)cn1` was 373 nM; that for `COc1ccc(NC(=O)/C=C/c2cc(Br)ccc2F)cc1OCCN(C(C)C)C(C)C` was 757 nM.

Compound `Cc1cccc2nc(-c3cccc(-c4ccc(NC(=O)C(C)CN5CCN(C)CC5)cc4)c3)[nH]c12` (stereo not drawn) displayed an XC50 of 175 nM. The value for `N=C(N)Nc1ccc(OCCCCCOc2ccc(NC(=N)N)c(Cl)c2)cc1Cl` was 857 nM; that for `O=C(NC1CCN(CCC[C@]2(c3ccc(Cl)c(Cl)c3)CCCN(C(=O)c3ccccc3)C2)CC1)c1ccc(Cl)cc1` was 899 nM. The value for `Cc1cc2c(cc1C(F)(F)F)N(C(=O)Nc1cc(C(=O)NCCN(C)C)cc(C(F)(F)F)c1)CC2` was 730 nM; that for `c1ccc2c(NCCOCCNc3c4ccccc4nc4ccccc34)c3ccccc3nc2c1` was 878 nM; that for `CCOc1cc(C(=O)Nc2cccnc2)cc(Br)c1OCCC(C)C` was 1080 nM. As to `N#Cc1ccc(N(CCOc2ccc(Cl)c(F)c2)Cc2ccccc2C(F)(F)F)cc1C(F)(F)F`, the XC50 stood at 685 nM.

`CCCC1(NC[C@@H](O)[C@H](Cc2ccccc2)NC(=O)c2cc(NCC)cc(N3CCCCS3(=O)=O)c2)CC1` yielded an XC50 of 1080 nM. For `c1cc(CN2CCCCC2)cc(-c2cccc(-c3nc4ccccc4[nH]3)c2)c1` the value was 828 nM; for `COc1ccc(-c2cc3nc4c(c(NCCCn5ccnc5)n3n2)CCCC4)cc1`, 730 nM. The value for `COc1ccc(C(C(=O)NC2CCN(C[C@H](O)c3ccnc4ccc(OC)cc34)CC2)N2CCN(Cc3ccccc3)CC2)cc1` (stereo partly drawn) was 149 nM. Take `COc1cc2nccc(Nc3ccc(OCc4ccccc4)cc3)c2cc1OC`: the XC50 was 203 nM. For `Cc1c(C)c2c(c(C)c1O)CC[C@@](C)(C(=O)N1CCC(CCN3CCC(c4c[nH]c5ccccc45)CC3)CC1)O2` the value was 666 nM; for `S=C(NCCCCCN1CCC(c2c[nH]c3ccccc23)CC1)Nc1cc(Cl)cc(Cl)c1`, 868 nM; for `O=C1CCCN1CCCNCc1ccc(-c2cccc(-c3nc4cc(C(F)(F)F)ccc4[nH]3)c2)cc1`, 191 nM. The value for `O=S(=O)(Nc1cccc(CCN2CCCCC2CCN2CCCC2)c1)c1cccc2ccccc12` (stereo not drawn) was 819 nM. Regarding `FC(F)(F)c1cccc(CCNc2nccc(NCc3ccc(Cl)cc3Cl)n2)c1`, the XC50 was found to be 858 nM. The value for `COc1ccc2ccccc2c1CNCCCCCCNCc1c(OC)ccc2ccccc12` was 712 nM; that for `O=C(Nc1ccc(N2CCNCC2)cc1)c1ccn2ncc(-c3cccc(Cl)c3)c2n1` was 922 nM. For `O=c1cc(NCCCNCc2cc(C(F)(F)F)ccc2F)[nH]c2ccccc12` the value was 829 nM; for `Cc1cc(N(C)C2CCN(CC3CCCCC3)C2)nc(Nc2ccc(Cl)cc2)n1` (stereo not drawn), 679 nM; for `NS(=O)(=O)c1ccc(CNC(=O)c2cnc3c(O)cccc3c2Nc2cccc(NC(=O)c3ccc(Cl)c(Cl)c3)c2)cc1`, 1720 nM. In turn, `COc1cccc(CNC(=O)c2cnc(N3CCN(c4ccncc4)CC3)c(Cl)c2)c1` had an XC50 of 1150 nM. For `Oc1ccc2ccccc2c1C=NNc1nc(=Nc2ccccc2)[nH]c(=Nc2ccccc2)[nH]1` the value was 667 nM. Compound `OCC1CCN(Cc2cccc(C#Cc3cc4ncnc(Nc5ccc(OCc6cccc(F)c6)c(Cl)c5)c4s3)n2)CC1` showed an XC50 of 552 nM. For `Nc1ncc(-c2cccc(F)c2)cc1-c1nc2cc(F)ccc2[nH]1` the value was 175 nM; for `CN(C)CCCOc1ccc(CN2CC[C@H](NC(=O)c3ccc(Cl)c(Cl)c3)C2)cc1Br`, 763 nM.

`Cc1cc(OCC2CCN(c3ncc(C(=O)Nc4ccccc4)cc3Cl)CC2)ccc1F` gave an XC50 of 899 nM. For `O=C(Nc1ccc(Cl)cc1)Nc1nc2cc([N+](=O)[O-])ccc2[nH]1` the value was 801 nM; for `CS(=O)(=O)CCNCc1ccc(-c2ccc3c(Nc4ccc(Oc5ccccn5)cc4)ccnc3c2)o1`, 715 nM.

`CCOc1ccc(C(=O)Nc2cc(Br)c3c(c2)CNCC3)cc1Br` had an XC50 of 990 nM. `CC1(C)CCC(C)(C)c2c1ccc(C1CCN(CCCCNC(=O)c3ccc(-c4ccc(Cl)cc4)cc3)CC1)c2O` had an XC50 of 477 nM. The value for `COc1ccc(NC(=O)[C@H](Cc2ccccc2)Nc2cc(C)nc(NCC3CCCCC3)n2)cc1` was 678 nM; that for `O=C(/C=C/c1ccc(Cl)c(Cl)c1)NCCCCCN1CCC(NC(=O)Nc2cc(F)cc(F)c2)CC1` was 787 nM. For `CC(=NNC(=N)N)c1ccc2c(c1)Cc1ccccc1-2` the value was 1410 nM; for `Cc1noc(C)c1-c1ccc(C(=C2CCCCCCC2)c2ccc(O)cc2)cc1`, 1050 nM. The value for `CSc1cccc(NC(=O)c2cc3ccccc3oc2=O)c1` was 833 nM; that for `CN(CCCN(C)c1cc(NC(=O)c2ccc(F)cc2)ccn1)Cc1cccc(F)c1` was 1220 nM; that for `Cc1ccc(-c2nc3ccccc3o2)cc1NCc1cc(Cc2ccccc2)ccc1O` was 1030 nM. `O=C(/C=C/c1ccc(Cl)c(Cl)c1)NC1CCN(Cc2ccc(O)cc2)CC1` displayed an XC50 of 691 nM. As to `CCCc1cc(N2CCC(N3CCCC3)CC2)nc(Nc2ccc(OC)cc2)n1`, the XC50 was found to be 807 nM. The value for `O=C(Nc1cccc(-c2ccc(-c3nc4cc(C(F)(F)F)ccc4[nH]3)s2)c1)c1c[nH]cn1` was 1110 nM. The value for `O=C1NC(c2ccc(N3CCCCCC3)cc2)Nc2ccccc21` (stereo not drawn) was 566 nM; that for `Cc1ccccc1C1CCN(C2CCC(NC(=O)C3=Cc4cc(Cl)ccc4OC3)CC2)CC1` (stereo not drawn) was 889 nM. For `CC(=O)Nc1ccc2[nH]cc(C3CCN(CCC4CCN(C(=O)/C=C/c5ccc(Cl)c(Cl)c5)CC4)CC3)c2c1` the value was 776 nM; for `CCCCN1CCN(Cc2cccc(NC(=O)c3ccc(Cl)c(Cl)c3)c2)CC1`, 1160 nM; for `CCc1ccc(N2C(N)=NC(N)=NC2(C)C)cc1`, 8.82 nM. Take `CCCc1cc(Cc2cnc(N)nc2N)cc(CCC)c1OCCCCCC(=O)OCC`: the XC50 came out at 51.7 nM. For `Cc1ccc(Nc2ccnc(Nc3ccc4c(c3)CS(=O)(=O)C4)n2)cc1O` the value was 725 nM; for `COc1ccc(CCNCCCCCCNCCc2ccc(Cl)cc2)c(Cl)c1OC`, 825 nM.

These data come from ChEMBL document CHEMBL1157539, “Thousands of chemical starting points for antimalarial lead identification” (Nature, 2010).
